Laboratory results taken from US4072760A, “Bronchospasmolytic phenylethanolamines” (Pharmacia AS, priority 1974, dated 1978).
Read-outs that look alike come from different tables or passages of the source.

Key:
[1] = in vivo; conditions: mouse
Source text: Furthermore the acute toxicity in mice after intraveneous and oral administration is given.

[2] = test system: β2 -stimulation, lungs guinea pig; assay: Bronchospasmolytic effect (β2 -stimulation), Konzett-Rossler technique in anaesthetized guinea pig lungs; assay type: in vivo; conditions: Cavia porcellus, doses as free base of the racemic compound
[3] = test system: β1 -stimulation, heart rate mice; assay: Heart rate increasing effect (β1 -stimulation) in pentobarbital anaesthetized mice; assay type: in vivo; conditions: Mus musculus, iv, dose giving an increase in heart rate of 100 beats/min, as free base
Description: An especially valuable feature of the present invention is that typical and preferred representative of the compounds of the invention show a high bronchial selectivity (ratio of bronchospasmolytic activity to heart rate increasing effect) as compared to existing well-known broncholytics. […] The ratio, heart rate increasing dose ("ED 100") divided by bronchospasmolytic dose (ED 50), is a measure of the degree of selectivity of the bronchospasmolytic action. This ratio was calculated for a number of the compounds of the invention and for some of the most relevant compounds of reference.

[4] = test system: β2 -stimulation versus β1 -stimulation; assay: Bronchial selectivity: heart rate increasing dose ("ED 100") divided by bronchospasmolytic dose (ED 50); assay type: in vivo; conditions: heart rate ED 100 (mice, i.v.) / bronchospasmolytic ED 50 (guinea pig, i.v.)
Description: The ratio, heart rate increasing dose ("ED 100") divided by bronchospasmolytic dose (ED 50), is a measure of the degree of selectivity of the bronchospasmolytic action. This ratio was calculated for a number of the compounds of the invention and for some of the most relevant compounds of reference.

[5] = test system: dogs; conditions: dog, in vivo
Source text: (§1) Compounds of the present invention are well tolerated, as appears from the table.

[6] = test system: conscious guinea pigs; assay: Heart rate in conscious guinea pigs (Farmer et al.); assay type: in vivo
Description: (§2) The effective bronchospasmolytic doses of the two compounds were determined using a pressurized aerosol of a 1% acetylcholine solution as the spasmogen according to the method of […]. Pharmacol Exp. Therap. 1974, 189, 167-184 and the heart rate was determined according to Farmer et al. (Br. J. Pharmac. Chemotherap. 1968, 32, 193-200.

[7] = test system: β-stimulation of the skeletal muscles; assay: Tremor-inducing activity (β-stimulation of the skeletal muscles) compared to bronchospasmolytic activity in cats (Bowman and Nott); assay type: in vivo
Description: For a few of the compounds of the invention, the tremor-inducing activity (β-stimulation of the skeletal muscles) was determined in cats (in accordance with the technique of Bowman, W. C. and Nott, M. W.: Actions of some sympathomimetic bronchodilator and beta-adrenoceptor blocking drugs on contractions of the cat soleus muscle, Brit. J. Pharmac., 1970, 38, 37-49) and compared to the bronchospasmolytic activity in the same species.

[8] = test system: conscious guinea pigs; assay: Bronchospasmolytic dose in conscious guinea pigs, acetylcholine aerosol as spasmogen (Wardell); assay type: in vivo; conditions: pressurized aerosol of 1% acetylcholine, more active than salbutamol
Description: as §2

[9] = set-up: species or system rate; conditions: in vivo
Source text: as §1

[10] = iv, read-out: β2 -stimulation lungs guinea pig ED 50 i.v.
[11] = i.d. = intraduodenally, read-out: β2 -stimulation lungs guinea pig ED 50 i.d.

SMILES	LD50 ([1]; iv) [mg/kg]	LD50 ([1]; po) [mg/kg]	ED50 [2, 10] [mg/kg]	ED (increase of 100 beats/min) [3] [mg/kg]	Ratio "ED 100"/ED 50 [4]	ED50 [2, 11] [mg/kg]	acute intravenous and oral toxicity test: tolerability [5]	two week tolerance test in dogs: tolerability [5]	heart rate stimulating effect compared with salbutamol [6]	ratio between bronchospasmolytic dose and tremor-inducing dose, compared with salbutamol [7]	broncholytic activity relative to salbutamol [8] [times]	three month toxicity test: toxic reactions [9]
CC(C)(C)NCC(O)c1ccc(O)c(NC(=O)c2ccc(Cl)c(Cl)c2)c1.Cl (stereo not drawn) [3-(3,4-Dichlorobenzamido)-4-hydroxy-α-(tert.butylaminomethyl)benzylalcohol hydrochloride]	60	> 2000	0.1	–	–	–	–	–	–	–	–	–
COc1ccc(CNc2cc(C(O)CNC(C)(C)C)ccc2O)cc1OC.Cl (stereo not drawn) [3-(3,4-Dimethoxybenzylamino)-4-hydroxy-α-(tert.butylaminomethyl)benzylalcohol hydrochloride]	20	> 2000	0.01	0.09	9	10	–	–	–	–	–	–
CC(C)(C)NCC(O)c1ccc(O)c(NC(=O)c2cc(O)cc(O)c2)c1.Cl (stereo not drawn) [3-(3,5-Dihydroxybenzamido)-4-hydroxy-α-(tert.butylaminomethyl)-benzylalcohol hydrochloride]	20	> 2000	0.3	–	–	20	–	–	–	–	–	–
COc1c(C)cc(CNc2cc(C(O)CNC(C)(C)C)ccc2O)cc1C.Cl (stereo not drawn) [3-(3,5-Dimethyl-4-methoxybenzylamino)-4-hydroxy-α-(tert.butylaminomethyl)benzylalcohol hydrochloride]	20	1500	0.03	0.3	10	3	–	–	–	–	–	–
COc1cc(CNc2cc(C(O)CNC(C)(C)C)ccc2O)ccc1O.Cl (stereo not drawn) [3-(3-Methoxy-4-hydroxybenzylamino)-4-hydroxy-α-(tert.butylaminomethyl)-benzylalcohol hydrochloride]	10 to 30	> 2000	0.02	0.05	2.5	–	–	–	–	–	–	–
CC(C)(C)NCC(O)c1ccc(O)c(NC(=O)c2cccc([N+](=O)[O-])c2)c1.Cl (stereo not drawn) [3-(3-Nitrobenzamido)-4-hydroxy-α-(tert.butylaminomethyl)benzylalcohol hydrochloride]	60	> 2000	0.3	–	–	–	–	–	–	–	–	–
CC(C)(C)NCC(O)c1ccc(O)c(NCc2cccc(O)c2)c1 (stereo not drawn) [3-(3-hydroxybenzylamino)-4-hydroxy-α-(tert.butylaminomethyl) benzylalcohol]	20	≥ 2000	0.01	0.025	2.5	10	–	–	–	–	–	–
CC(C)(C)NCC(O)c1ccc(O)c(NC(=O)c2ccc(Cl)cc2)c1.Cl (stereo not drawn) [3-(4-Chlorobenzamido)-4-hydroxy-α-(tert.butylaminomethyl)benzylalcohol hydrochloride]	60	> 2000	0.5	–	–	–	–	–	–	–	–	–
CN(C)c1ccc(CNc2cc(C(O)CNC(C)(C)C)ccc2O)cc1.Cl (stereo not drawn) [3-(4-Dimethylaminobenzylamino)-4-hydroxy-α-(tert.butylaminomethyl)benzylalcohol hydrochloride]	20	700	0.02	≥ 0.1	≥ 5	–	–	–	–	–	–	–
CCOc1ccc(CNc2cc(C(O)CNC(C)(C)C)ccc2O)cc1.Cl (stereo not drawn) [3-(4-Ethoxybenzylamino)-4-hydroxy-α-(tert.butylaminomethyl)benzylalcohol hydrochloride]	20	400	0.01	0.1	10	5	–	–	–	–	–	–
CC(C)(C)NCC(O)c1ccc(O)c(NCc2ccc(O)cc2)c1.Cl (stereo not drawn) [3-(4-Hydroxybenzylamino)-4-hydroxy-α-(tert.butylaminomethyl)benzylalcohol hydrochloride]	20	> 2000	0.01	0.07	7	10	–	–	–	–	–	–
CC(C)Oc1ccc(CNc2cc(C(O)CNC(C)(C)C)ccc2O)cc1.Cl (stereo not drawn) [3-(4-Isopropoxybenzylamino)-4-hydroxy-α-(tert.butylaminomethyl)-benzylalcohol hydrochloride]	20	400	0.03	0.1	3.3	–	–	–	–	–	–	–
COc1ccc(CNc2cc(C(O)CNC(C)(C)C)ccc2O)cc1.Cl (stereo not drawn) [3-(4-Methoxybenzylamino)-4-hydroxy-α-(tert.butylaminomethyl)-benzylalcohol hydrochloride]	20	300	0.003	0.1	33	1	good tolerability	good tolerability	the heart rate stimulating effect was the same	a better ratio than salbutamol	10	no toxic reactions
Cc1ccc(CNc2cc(C(O)CNC(C)(C)C)ccc2O)cc1.Cl (stereo not drawn) [3-(4-Methylbenzylamino)-4-hydroxy-α-(tert.butylaminomethyl)benzylalcohol hydrochloride]	20	700	0.07	–	–	–	–	–	–	–	–	–
CC(C)(C)NCC(O)c1ccc(O)c(NCc2ccc([N+](=O)[O-])cc2)c1.Cl (stereo not drawn) [3-(4-Nitrobenzylamino)-4-hydroxy-α-(tert.butylaminomethyl)-benzylalcohol hydrochloride]	60	400	0.01	0.1	10	0.5	–	–	–	–	–	–
COc1ccc(C(=O)Nc2cc(C(O)CNC(C)(C)C)ccc2O)cc1.Cl (stereo not drawn) [3-(4-methoxybenzamido)-4-hydroxy-α-(tert.butylaminomethyl)benzylalcohol hydrochloride]	80	> 2000	0.1	> 1	> 10	10	–	–	–	the same ratio between bronchospasmolytic dose and tremor-inducing dose as salbutamol	–	–
CC(C)(C)NCC(O)c1ccc(O)c(NC(=O)c2ccc([N+](=O)[O-])cc2)c1.Cl (stereo not drawn) [3-(4-nitrobenzamido)-4-hydroxy-α-(tert.butylaminomethyl)benzylalcohol hydrochloride]	40	> 2000	0.1	> 1	> 10	10	–	–	–	–	–	–
COCCOc1ccc(CNc2cc(C(O)CNC(C)(C)C)ccc2O)cc1.Cl (stereo not drawn) [3-[4-(2-Methoxyethoxy)benzylamino]-4-hydroxy-α-(tert.butylaminomethyl)-benzylalcohol hydrochloride]	20	> 1000	0.01	0.1	10	1	–	–	–	–	–	–
CC(C)(C)NCC(O)c1ccc(O)c(NCc2ccc(OCC(N)=O)cc2)c1 (stereo not drawn) [3-[4-(carbamoylmethoxy)benzylamino]-4-hydroxy-α-(tert.butylaminomethyl)benzylalcohol]	20	> 1000	0.01	0.1	10	10	–	–	–	–	–	–
CC(C)NCC(O)c1ccc(O)c(O)c1 (centres unmarked) [Isoprenaline, reference compound]	–	–	0.005	0.0003	–	–	–	–	–	–	–	–
CC(C)NCC(O)c1cc(O)cc(O)c1 (centres unmarked) [Orciprenaline, reference compound]	–	–	0.1	0.01	–	–	–	–	–	–	–	–
CC(C)(C)NCC(O)c1ccc(O)c(CO)c1 (centres unmarked) [Saloutamol, salbutamol, reference compound]	–	–	0.01	0.1	–	5	–	–	–	–	–	–
CC(C)NCC(O)c1ccc(O)c(NS(C)(=O)=O)c1 (centres unmarked) [Soterenol, reference compound]	60	750	0.02	0.04	2	–	–	–	–	–	–	–
CC(C)(C)NCC(O)c1cc(O)cc(O)c1 (centres unmarked) [Terbutaline, reference compound]	40	> 2000	0.03	0.3	10	10	–	–	–	–	–	–
